Measurements taken from patent publication EP0036269A1, “Substituted benzamides” (BEECHAM GROUP PLC, priority 1980, dated 1981).
Like-named read-outs stand apart in the source and are kept apart here.

Legend:
Assay type in all cases: in vivo
[1] = system: apomorphine induced stereotypy; experiment: Inhibition of apomorphine-induced biting in the rat; conditions: apomorphine 5 mg/kg sc, compounds administered subcutaneously 15 minutes after apomorphine, stereotypy scored for 90 mins
Protocol: (§1) Compounds were also tested for their ability to inhibit apomorphine induced stereotypy in rodents. Inactivity in these tests may be indicative of a low propensity to produce extra pyramidal side effects in man. The tests used were as follows.
Apomorphine 5 mg/kg sc induces a stereotypic gnawing behaviour in rats which can be measured by a subjective scoring system; score O - animal behaving normally; score 1 - increased locomotion activity with occassional sniffing and licking; score 2 - persistent licking of the bars of the cage with occassional biting; score 3 - more sustained biting; score 4 - intense biting at a particular part of the cage, animal no longer moving about.
Animals are individually placed in wire cages and after being allowed to become acclimatised are injected with apomorphine 5 mg/kg sc. Stereotypy is scored at 10 min intervals for 90 mins after apomorphine. Compounds are administered subcutaneously 15 minutes after the apomorphine.

[2] = system: intra-gastric pressure in the rat; experiment: Increase in intragastric pressure in the rat; conditions: conscious restrained starved rats, 40 minute period after administration; for minimal effective dose: Rattus norvegicus, po, 40 min, read-out: minimum dose for activity
Protocol: The compounds of the Examples were tested for pharmacological activity in increasing intra-gastric pressure in the rat. Intragastric pressure changes were recorded from previously starved conscious and restrained rats using a fluid filled catheter inserted into the lumen of the stomach via a permanent gastric fistula. The catheter was connected to a physiological pressure transducer and pressure changes recorded on a hot wire pen recorder. In each animal a pre-dose period of 40 minutes was allowed to obtain a measure of spontaneous activity. An index of activity was obtained by measuring the average height of pressure waves during 10 minute periods. Values for 4 such periods were obtained during assessment of spontaneous activity and for the 40 minute period after the administration of the Compounds. Student "t" test was applied to the difference in average values obtained for spontaneous and post compound activity.

[3] = system: apomorphine induced stereotypy; experiment: Inhibition of apomorphine-induced climbing in the mouse; conditions: for ED50: sc, inhibition of climbing induced by apomorphine 1 mg/kg sc
Protocol: as §1
This test is based on that described by Protain, P. et al (1976) Psychopharmacol. 50, 1-6.
Apomorphine 1 mg/kg sc induced mice to climb the wall of a wire cage (inverted food hopper - 11 x 7.5 x 18 cm high). Mice acclimatised in their home cages in groups of 5 are placed under the hoppers immediately after the injection of apomorphine 1 mg/kg SC. At 10, 20 and 30 minutes after injection climbing behaviour scored. The mice are observed for 30 seconds and scored according to the position in which they spend the majority of time; score O - four paws on floor of cage; score 1 - 2 paws only on walls; score 2 - all four paws on wall of cage.
The scores at all 3 times for each mouse are summed for apomorphine only and for apomorphine plus compound groups of mice

SMILES | Inhibition of apomorphine-induced biting [1] | further results
COc1cc(N)c(Cl)cc1C(=O)NCC1CCC2CCCCN2C1 (single isomer, unassigned) [2 (Isomer B), (±) 4-Amino-5-chloro-2-methoxy-N-(3'-quinolizidinyl-methyl)-benzamide] | inactive | minimum dose for activity ([2]; Subcut): 5.0 mg/kg; minimum dose for activity ([2]; oral): 5.0 mg/kg
COc1cc(N)c(Cl)cc1C(=O)NCC1CCCN2CCCCC12 (single isomer, unassigned) [4 (Isomer B), (±) 4-Amino-5-chloro-2-methoxy-N-(1'-guinolizidinyl-methyl)-benzamide] | inactive | –
COc1cc(N)c(Cl)cc1C(=O)NCC1CCC2CCCCN21 (single isomer, unassigned) [Example 14 (Isomer A), (±) 4-Amino-5-chloro-2-methoxy-N-(3'-indolizidiny-methyl)-benzamide] | inactive | ED50 ([3]; Mus musculus, read-out: ED50): 20 mg/kg
COc1cc(N)c(Cl)cc1C(=O)NCC1CCCN2CCCCC12 (single isomer, unassigned) [Example 4 (Isomer A), (±) 4-Amino-5-chloro-2-methoxy-N-(1'-guinolizidinyl-methyl)-benzamide] | inactive | –
COc1cc(N)c(Cl)cc1C(=O)NCC1CCC2CCCCN2C1 (single isomer, unassigned) [Example 2 (Isomer A), (±) 4-Amino-5-chloro-2-methoxy-N-(3'-quinolizidinyl-methyl)-benzamide] | inactive | minimal effective dose ([2]; oral): 5 mg/kg; minimum dose for activity ([2]; Subcut): 0.2 mg/kg; Inhibition of climbing ([3]; apomorphine 1 mg/kg sc, climbing scored at 10, 20 and 30 minutes): inactive
COc1cc(N)c(Cl)cc1C(=O)NCC1CCC2CCCCN21 (single isomer, unassigned) [14 (Isomer B), (±) 4-Amino-5-chloro-2-methoxy-N-(3'-indolizidiny-methyl)-benzamide] | inactive | minimal effective dose ([2]; Subcut): 0.2 mg/kg; ED50 [3]: 15 mg/kg
COc1cc(N)c(Cl)cc1C(=O)NCC1CC2CCCCN2C1 (racemic) [Example 12, (±) 4-Amino-5-chloro-2-methoxy-N-(2'-indolizidinyl-methyl)-benzamide] | inactive | –
COc1cc(N)c(Cl)cc1C(=O)NCC1CCCC2CCCCN2C1 (racemic) [Example 8, (±) 4-Amino-5-chloro-2-methoxy-N-[3'-(1'-azabicyclo[5,4, O]-hendecyl-methyl)]-benzamide] | inactive | –
